Data published in US6541450B1, “Parathyroid hormone analogues for the treatment of osteoporosis” (National Research Council of Canada, priority 1994, dated 2003).
Where two headings read alike, the source gives them in different places. Where a SMILES comes first, the peptide text is derived from it. Bridges are numbered along the chain shown (N, C = ends). Where no end group is shown, it is not given here.

B1: [Leu^27]cyclo(Lys^26-Asp^30)-hPTH-(1-31)-NH2 (peptide)
peptide: SVSEIQLMHNLGKHLNSMERVEWLRKLLQDV-NH2
modifications: lactam 26-30; N-terminus assumed
SMILES: CC[C@H](C)[C@H](NC(=O)[C@H](CCC(=O)O)NC(=O)[C@H](CO)NC(=O)[C@@H](NC(=O)[C@@H](N)CO)C(C)C)C(=O)N[C@@H](CCC(N)=O)C(=O)N[C@@H](CC(C)C)C(=O)N[C@@H](CCSC)C(=O)N[C@@H](Cc1c[nH]cn1)C(=O)N[C@@H](CC(N)=O)C(=O)N[C@@H](CC(C)C)C(=O)NCC(=O)N[C@@H](CCCCN)C(=O)N[C@@H](Cc1c[nH]cn1)C(=O)N[C@@H](CC(C)C)C(=O)N[C@@H](CC(N)=O)C(=O)N[C@@H](CO)C(=O)N[C@@H](CCSC)C(=O)N[C@@H](CCC(=O)O)C(=O)N[C@@H](CCCNC(=N)N)C(=O)N[C@H](C(=O)N[C@@H](CCC(=O)O)C(=O)N[C@@H](Cc1c[nH]c2ccccc12)C(=O)N[C@@H](CC(C)C)C(=O)N[C@@H](CCCNC(=N)N)C(=O)N[C@H]1CCCCNC(=O)C[C@@H](C(=O)N[C@H](C(N)=O)C(C)C)NC(=O)[C@H](CCC(N)=O)NC(=O)[C@H](CC(C)C)NC(=O)[C@H](CC(C)C)NC1=O)C(C)C

Experiments:
[1] = biological target: T1, adenylyl cyclase, ROS 17/2 cells (Rattus norvegicus, UniProt P25961); test: Adenylyl cyclase stimulation, [3H]-cyclic AMP production in ROS 17/2 cells; assay type: cell-based
T1 sequence (P25961 27-591): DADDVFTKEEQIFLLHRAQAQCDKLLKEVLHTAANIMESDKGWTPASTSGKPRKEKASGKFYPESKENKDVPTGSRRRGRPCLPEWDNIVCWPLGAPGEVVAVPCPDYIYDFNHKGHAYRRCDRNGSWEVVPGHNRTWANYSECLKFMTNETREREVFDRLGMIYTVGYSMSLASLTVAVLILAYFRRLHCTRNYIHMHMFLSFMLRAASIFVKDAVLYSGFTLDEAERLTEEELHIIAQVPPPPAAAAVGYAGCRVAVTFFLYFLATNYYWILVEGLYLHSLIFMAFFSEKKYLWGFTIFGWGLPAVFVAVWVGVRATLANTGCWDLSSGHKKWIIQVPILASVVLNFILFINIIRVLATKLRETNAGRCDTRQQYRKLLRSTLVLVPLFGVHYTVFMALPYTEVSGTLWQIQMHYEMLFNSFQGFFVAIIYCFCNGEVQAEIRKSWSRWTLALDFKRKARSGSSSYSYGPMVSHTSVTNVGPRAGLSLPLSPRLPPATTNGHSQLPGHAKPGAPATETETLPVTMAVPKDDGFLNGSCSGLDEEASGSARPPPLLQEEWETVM

[2] = tested on: anesthetized female Sprague-Dawley rats; test: Hypotensive effect, tail artery pressure in anaesthetized rats
Experimental: Female Sprague-Dawley rats (weighing over 290 g) were anaesthetized with intraperitoneally injected sodium pentobarbital (65 mg/kg body weight). Rectal temperature was monitored with a YS1402 thermistor (Yellow Springs Instrument Co., Inc. Yellow Springs, Ohio) and maintained between 36.0 and 38.5° C. throughout the experiment. Ear pinna temperature was also monitored using a YSi banjo thermistor. The tail artery was exposed to cannulated with a Jelco 25-gIV catheter (Johnson and Johnson Medical Inc., Arlington, Tex.) and connected to a Statham pressure transducer, the signals from which were recorded digitally with a Biopac Systems MP100 Monitor (Harvard Instruments, Saint Laurent, QC, Canada). For intravenous injection of PTH or one of its fragments, a femoral vein was also exposed. After surgery, the rat was allowed to stabilize for 8 min after which PTH or one of its fragments (dissolved in acidified saline containing 0.001 N HCl) was injected into the femoral vein or under the skin of the abdomen. Data were collected for 12 min after intravenous injection or for 22 min after subcutaneous injection.

PTH receptor = PTH receptor (rat (ROS 17/2 rat osteosarcoma cell …, UniProt P25961)); test: cell-based or functional assay
[3] = ROS 17/2 cells, concentration for half-maximal increase in AC activity, read-out: Adenylyl Cyclase (EC50)

Molecule | EC50 [1, 3] [nM] | also measured
CC[C@H](C)[C@H](NC(=O)[C@H](CCC(=O)O)NC(=O)[C@H](CO)NC(=O)[C@@H](NC(=O)[C@@H](N)CO)C(C)C)C(=O)N[C@@H](CCC(N)=O)C(=O)N[C@@H](CC(C)C)C(=O)N[C@@H](CCSC)C(=O)N[C@@H](Cc1c[nH]cn1)C(=O)N[C@@H](CC(N)=O)C(=O)N[C@@H](CC(C)C)C(=O)NCC(=O)N[C@@H](CCCCN)C(=O)N[C@@H](Cc1c[nH]cn1)C(=O)N[C@@H](CC(C)C)C(=O)N[C@@H](CC(N)=O)C(=O)N[C@@H](CO)C(=O)N[C@@H](CCSC)C(=O)N[C@@H](CCC(=O)O)C(=O)N[C@@H](CCCNC(=N)N)C(=O)N[C@H](C(=O)N[C@H]1CCC(=O)NCCCC[C@@H](C(=O)N[C@@H](Cc2ccc(O)cc2)C(=O)N[C@@H](CC(C)C)C(=O)N[C@@H](CCC(N)=O)C(=O)N[C@@H](CC(=O)O)C(=O)N[C@H](C(N)=O)C(C)C)NC(=O)[C@H](CCCNC(=N)N)NC(=O)[C@H](CC(C)C)NC(=O)[C@H](Cc2c[nH]c3ccccc23)NC1=O)C(C)C [[Tyr^27]cyclo(Glu^22—Lys^26)—hPTH—(1-31)-NH2] (H-SVSEIQLMHNLGKHLNSMERVEWLRKYLQDV-NH2; lactam 22-26; N-terminus assumed) | 9 | 
CC[C@H](C)[C@H](NC(=O)[C@H](CCC(=O)O)NC(=O)[C@H](CO)NC(=O)[C@@H](NC(=O)[C@@H](N)CO)C(C)C)C(=O)N[C@@H](CCC(N)=O)C(=O)N[C@@H](CC(C)C)C(=O)N[C@@H](CCSC)C(=O)N[C@@H](Cc1c[nH]cn1)C(=O)N[C@@H](CC(N)=O)C(=O)N[C@@H](CC(C)C)C(=O)NCC(=O)N[C@@H](CCCCN)C(=O)N[C@@H](Cc1c[nH]cn1)C(=O)N[C@@H](CC(C)C)C(=O)N[C@@H](CC(N)=O)C(=O)N[C@@H](CO)C(=O)N[C@@H](CCSC)C(=O)N[C@@H](CCC(=O)O)C(=O)N[C@@H](CCCNC(=N)N)C(=O)N[C@H](C(=O)N[C@@H](CCC(=O)O)C(=O)N[C@@H](Cc1c[nH]c2ccccc12)C(=O)N[C@@H](CC(C)C)C(=O)N[C@@H](CCCNC(=N)N)C(=O)N[C@H]1CCCCNC(=O)C[C@@H](C(=O)N[C@H](C(N)=O)C(C)C)NC(=O)[C@H](CCC(N)=O)NC(=O)[C@H](CC(C)C)NC(=O)[C@H](CC(C)C)NC1=O)C(C)C [compound 4, [Leu^27]cyclo(Lys^26-Asp^30)-hPTH-(1-31)-NH2] (H-SVSEIQLMHNLGKHLNSMERVEWLRKLLQDV-NH2; lactam 26-30; N-terminus assumed) | 3 | EC50 ([1]; ROS cell line, read-out: EC50, AC-stimulating activity): 17 ± 3.3 nM; hypotensive action, in words ([2]; subcutaneous injection): enhanced hypotensive effects
CC[C@H](C)[C@H](NC(=O)[C@H](CCC(=O)O)NC(=O)[C@H](CO)NC(=O)[C@@H](NC(=O)[C@@H](N)CO)C(C)C)C(=O)N[C@@H](CCC(N)=O)C(=O)N[C@@H](CC(C)C)C(=O)N[C@@H](CCSC)C(=O)N[C@@H](Cc1c[nH]cn1)C(=O)N[C@@H](CC(N)=O)C(=O)N[C@@H](CC(C)C)C(=O)NCC(=O)N[C@@H](CCCCN)C(=O)N[C@@H](Cc1c[nH]cn1)C(=O)N[C@@H](CC(C)C)C(=O)N[C@@H](CC(N)=O)C(=O)N[C@@H](CO)C(=O)N[C@@H](CCSC)C(=O)N[C@@H](CCC(=O)O)C(=O)N[C@@H](CCCN=C(N)N)C(=O)N[C@H](C(=O)N[C@H]1CCC(=O)NCCCC[C@@H](C(=O)N[C@@H](CC(C)C)C(=O)N[C@@H](CC(C)C)C(=O)N[C@@H](CCC(N)=O)C(=O)N[C@@H](CC(=O)O)C(N)=O)NC(=O)[C@H](CCCN=C(N)N)NC(=O)[C@H](CC(C)C)NC(=O)[C@H](Cc2c[nH]c3ccccc23)NC1=O)C(C)C [compound 8, [Leu^27]cyclo(Glu^22Lys^26)-hPTH-(1-30)-NH2] (H-SVSEIQLMHNLGKHLNSMERVEWLRKLLQD-NH2; lactam 22-26) | 20 | rate of transport of subcutaneously injected peptide to the vascular system ([2]; subcutaneous, 0.8 nmol/100 g of body weight): significantly (p<0.05) reduced rates of transport
CC[C@H](C)[C@H](NC(=O)[C@H](CCC(=O)O)NC(=O)[C@H](CO)NC(=O)[C@@H](NC(=O)[C@@H](N)CO)C(C)C)C(=O)N[C@@H](CCC(N)=O)C(=O)N[C@@H](CC(C)C)C(=O)N[C@@H](CCSC)C(=O)N[C@@H](Cc1c[nH]cn1)C(=O)N[C@@H](CC(N)=O)C(=O)N[C@@H](CC(C)C)C(=O)NCC(=O)N[C@@H](CCCCN)C(=O)N[C@@H](Cc1c[nH]cn1)C(=O)N[C@@H](CC(C)C)C(=O)N[C@@H](CC(N)=O)C(=O)N[C@@H](CO)C(=O)N[C@@H](CCSC)C(=O)N[C@@H](CCC(=O)O)C(=O)N[C@@H](CCCNC(=N)N)C(=O)N[C@H](C(=O)N[C@H]1CCC(=O)NCCCC[C@@H](C(=O)N[C@@H](CCCCN)C(=O)N[C@@H](CC(C)C)C(=O)N[C@@H](CCC(N)=O)C(=O)N[C@@H](CC(=O)O)C(=O)N[C@H](C(N)=O)C(C)C)NC(=O)[C@H](CCCNC(=N)N)NC(=O)[C@H](CC(C)C)NC(=O)[C@H](Cc2c[nH]c3ccccc23)NC1=O)C(C)C [cyclo(Glu^22—Lys^26)—hPTH—(1-31)-NH2] | 17 | 
CC[C@H](C)[C@H](NC(=O)[C@H](CCC(=O)O)NC(=O)[C@H](CO)NC(=O)[C@@H](NC(=O)[C@@H](N)CO)C(C)C)C(=O)N[C@@H](CCC(N)=O)C(=O)N[C@@H](CC(C)C)C(=O)N[C@@H](CCSC)C(=O)N[C@@H](Cc1c[nH]cn1)C(=O)N[C@@H](CC(N)=O)C(=O)N[C@@H](CC(C)C)C(=O)NCC(=O)N[C@@H](CCCCN)C(=O)N[C@@H](Cc1c[nH]cn1)C(=O)N[C@@H](CC(C)C)C(=O)N[C@@H](CC(N)=O)C(=O)N[C@@H](CO)C(=O)N[C@@H](CCSC)C(=O)N[C@@H](CCC(=O)O)C(=O)N[C@@H](CCCN=C(N)N)C(=O)N[C@H](C(=O)N[C@H]1CCC(=O)NCCCC[C@@H](C(=O)N[C@@H](CC(C)C)C(=O)N[C@@H](CC(C)C)C(=O)N[C@@H](CCC(N)=O)C(=O)N[C@@H](CC(=O)O)C(=O)N[C@H](C(N)=O)C(C)C)NC(=O)[C@H](CCCN=C(N)N)NC(=O)[C@H](CC(C)C)NC(=O)[C@H](Cc2c[nH]c3ccccc23)NC1=O)C(C)C [peptide 3, [Leu^27]cyclo(Glu^22-Lys^26)-hPTH-(1-31)-NH2] (H-SVSEIQLMHNLGKHLNSMERVEWLRKLLQDV-NH2; lactam 22-26) | 3 | bioavailability, in words ([2]; subcutaneous, 0.8 nmol/100 g, inferred from time to minimum bp): increased bioavailability
CC[C@H](C)[C@H](NC(=O)[C@H](CCC(=O)O)NC(=O)[C@H](CO)NC(=O)[C@@H](NC(=O)[C@H](CO)NC(C)=O)C(C)C)C(=O)N[C@@H](CCC(N)=O)C(=O)N[C@@H](CC(C)C)C(=O)N[C@@H](CCSC)C(=O)N[C@@H](Cc1c[nH]cn1)C(=O)N[C@@H](CC(N)=O)C(=O)N[C@@H](CC(C)C)C(=O)NCC(=O)N[C@@H](CCCCN)C(=O)N[C@@H](Cc1c[nH]cn1)C(=O)N[C@@H](CC(C)C)C(=O)N[C@@H](CC(N)=O)C(=O)N[C@@H](CO)C(=O)N[C@@H](CCSC)C(=O)N[C@@H](CCC(=O)O)C(=O)N[C@@H](CCCNC(=N)N)C(=O)N[C@H](C(=O)N[C@H]1CCC(=O)NCCCC[C@@H](C(=O)N[C@@H](CC(C)C)C(=O)N[C@@H](CC(C)C)C(=O)N[C@@H](CCC(N)=O)C(=O)N[C@@H](CC(=O)O)C(=O)N[C@H](C(N)=O)C(C)C)NC(=O)[C@H](CCCNC(=N)N)NC(=O)[C@H](CC(C)C)NC(=O)[C@H](Cc2c[nH]c3ccccc23)NC1=O)C(C)C [α-acetyl-[Leu^27]cyclo(Glu^22—Lys^26)—hPTH—(1-31)-NH2] (Ac-SVSEIQLMHNLGKHLNSMERVEWLRKLLQDV-NH2; lactam 22-26) | 24 | 
SVSEIQLMHNLGKHLNSMERVEWLRKLLQDV-NH2 [[Leu^27]-hPTH-(1-31)-NH2] |  | AC activity in the ROS cell line, EC50 (PTH receptor): 11.5 nM
B1 |  | adenylyl cyclase stimulation, EC50 (PTH receptor): 17 nM
